Data set [1] concerns SUM-159-PT. Kind of data set: Antiproliferative activity against human SUM159 cells assessed as reduction in cell viability incubated for 2 days by MTT assay. The settings on record: 48 h. The class given is functional, cell-based. In general terms: Tetrazolium assays rely on reduction of a dye to a coloured formazan, in cell work by metabolically active cells.
Data set [2] concerns MDA-MB-231. Put plainly: Antiproliferative activity against human MDA-MB-231 cells assessed as reduction in cell viability incubated for 2 days by MTT assay. The class given is functional, cell-based. The settings on record: MDA-MB-231, 48 h.
The test system of data set [3] is MCF7. Put plainly: Antiproliferative activity against human MCF7 cells assessed as reduction in cell viability incubated for 2 days by MTT assay. The class given is functional, cell-based. To be noted: MCF7, 48 h.
Another data set concerns SK-BR-3. Put plainly: Antiproliferative activity against human SKBR3 cells assessed as reduction in cell viability incubated for 2 days by MTT assay. The class given is functional, cell-based. The settings on record: SK-BR-3, 48 h.
A further data set concerns KG-1a. Kind of data set: Antiproliferative activity against human KG1a cells assessed as reduction in cell viability incubated for 2 days by MTT assay. The class given is functional, cell-based. The settings on record: 48 h.
Data set [4] in a line: Toxicity in zebra fish assessed as survival rate at 250 uM observed for 24 hrs. To be noted: zebrafish. Details: species or system Danio rerio.
Data set [5] has as its system MCF7. Put plainly: Inhibition of colony formation in human MCF7 cells at 0.20 uM incubated for 14 days with replacement of medium for every 3 or 4 days by crystal violet staining based visual analysis relative to control. The class given is functional.
For data set [6], the system named is MCF7. Kind of data set: Inhibition of colony formation in human MCF7 cells incubated for 14 days with replacement of medium for every 3 or 4 days by crystal violet staining based visual analysis. The class given is functional, cell-based.
Data set [7] has as its system SUM-159-PT. Kind of data set: Inhibition of mammosphere formation in human SUM159 cells incubated for 10 days by microscopic analysis. The class given is functional, cell-based.
Data set [8] has as its system SUM-159-PT. Kind of data set: Inhibition of mammosphere formation in human SUM159 cells assessed as reduction in number of mammosphere at 0.5 uM incubated for 10 days by microscopic analysis. The class given is functional.
Data set [9] has as its system SUM-159-PT. Kind of data set: Inhibition of mammosphere formation in human SUM159 cells assessed as reduction in number of mammosphere at 1 uM incubated for 10 days by microscopic analysis. The class given is functional.
The subject of data set [10] is SUM-159-PT. Kind of data set: Inhibition of mammosphere formation in human SUM159 cells assessed as reduction in number of mammosphere at 2 uM incubated for 10 days by microscopic analysis. The class given is functional.
In data set [11] the test system is MDA-MB-231. Kind of data set: Inhibition of cell migration of human MDA-MB-231 cells at 0.40 and 0.80 uM incubated for 48 hrs by scratch wound healing assay. The class given is functional, cell-based.
The target of data set [12] is Transcription factor p65 (Homo sapiens) (UniProt Q04206). Put plainly: Inhibition of LPS-stimulated NF-kappaB-p65 in human MDA-MB-231 cells at 0.40 and 0.80 uM incubated for 24 hrs by dual luciferase reporter gene assay. The class given is cell-based. (In general: A reporter such as luciferase makes a cellular process visible.)
Chain of Transcription factor p65 (Homo sapiens) (Q04206 whole entry): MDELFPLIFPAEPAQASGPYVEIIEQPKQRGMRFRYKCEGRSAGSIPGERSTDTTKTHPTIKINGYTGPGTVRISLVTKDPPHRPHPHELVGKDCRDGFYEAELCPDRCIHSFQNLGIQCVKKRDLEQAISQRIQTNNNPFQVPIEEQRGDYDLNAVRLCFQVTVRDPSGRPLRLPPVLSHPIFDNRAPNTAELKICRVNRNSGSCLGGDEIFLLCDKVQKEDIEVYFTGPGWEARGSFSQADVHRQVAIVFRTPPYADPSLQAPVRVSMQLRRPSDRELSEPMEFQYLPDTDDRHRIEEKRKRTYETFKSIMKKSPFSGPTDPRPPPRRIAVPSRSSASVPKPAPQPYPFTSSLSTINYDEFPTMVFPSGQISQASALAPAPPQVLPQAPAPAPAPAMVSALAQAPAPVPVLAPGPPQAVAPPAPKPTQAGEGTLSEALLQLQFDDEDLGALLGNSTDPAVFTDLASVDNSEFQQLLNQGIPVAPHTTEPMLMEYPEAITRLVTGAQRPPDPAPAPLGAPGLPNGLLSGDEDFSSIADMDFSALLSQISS
Data set [13] has as its system MDA-MB-231. Kind of data set: Downregulation of NF-kappaB-p65 expression in human MDA-MB-231 cells incubated for 48 hrs by Western blot analysis. The class given is functional, cell-based. (Immunoblotting shows a protein as a band on a membrane.)
In data set [14] the test system is SUM-159-PT. Put plainly: Potency index, ratio of IC50 of TFP to IC50 of compound for antiproliferative activity against human SUM159 cells assessed as reduction in cell viability incubated for 2 days by MTT assay. The class given is functional.
Data set [15] has as its system MCF7. Kind of data set: Potency index, ratio of IC50 of TFP to IC50 of compound for antiproliferative activity against human MCF7 cells assessed as reduction in cell viability incubated for 2 days by MTT assay. The class given is functional.
For data set [16], the system named is MCF7. Put plainly: Inhibition of colony formation in human MCF7 cells at 0.18 uM incubated for 14 days with replacement of medium for every 3 or 4 days by crystal violet staining based visual analysis relative to control. The class given is functional.
Data set [17] deals with MCF7. Put plainly: Inhibition of colony formation in human MCF7 cells at 0.37 uM incubated for 14 days with replacement of medium for every 3 or 4 days by crystal violet staining based visual analysis relative to control. The class given is functional.
The test system of data set [18] is MCF7. Put plainly: Inhibition of colony formation in human MCF7 cells at 0.74 uM incubated for 14 days with replacement of medium for every 3 or 4 days by crystal violet staining based visual analysis relative to control. The class given is functional.
Data set [19] has as its system MDA-MB-231. Kind of data set: Inhibition of cell migration of human MDA-MB-231 cells incubated for 48 hrs by scratch wound healing assay. The class given is functional, cell-based.
The target in data set [20] is Transcription factor p65 (Homo sapiens) (UniProt Q04206). Kind of data set: Inhibition of LPS-stimulated NF-kappaB-p65 in human MDA-MB-231 cells incubated for 24 hrs by dual luciferase reporter gene assay. The class given is cell-based.
For data set [21], the system named is MCF7. Put plainly: Inhibition of colony formation in human MCF7 cells at 2.83 uM incubated for 14 days with replacement of medium for every 3 or 4 days by crystal violet staining based visual analysis relative to control. The class given is functional.
Data set [22] concerns MDA-MB-231. Put plainly: Inhibition of cell migration of human MDA-MB-231 cells at 5.40 uM incubated for 48 hrs by scratch wound healing assay. The class given is functional, cell-based.

pIC50: −log10 of the molar value. Activity calls are given as the source filed them. No cut-off for these calls is given here.

The record followed here is ChEMBL document CHEMBL4342417, “Design, synthesis and evaluation of novel phenothiazine derivatives as inhibitors of breast cancer stem cells” (Eur J Med Chem, 2019).

Usually pIC50 stands for −log10 of the IC50, conventionally taken in molar units. The term inhibition denotes the share of the control response that was lost under treatment.

For the molecule `O=C(CCC(=O)N1CCN(CCCN2c3ccccc3Sc3ccccc32)CC1)OCCOc1no[n+]([O-])c1S(=O)(=O)c1ccccc1`, the pIC50 with SUM-159-PT [1] was 5.75; in the data set on MDA-MB-231 [2], 5.80; in the data set on MCF7 [3], 5.49; in the data set on SK-BR-3, 5.65; with KG-1a it was 5.75. The survival at 24 h, 250 µM in [4] was 51.6%. The same molecule returned an inhibition at 0.2 µM with MCF7 [5] of 10.3%. Further, the inhibition entry with MCF7 [6] and in the data set on SUM-159-PT [7] was “Dose-dependent effect” in each case. Moreover, the Activity with SUM-159-PT [8] is 8; in the data set with SUM-159-PT [9], 2; with SUM-159-PT [10], 1; in the data set on MDA-MB-231 [13] it was “Dose-dependent effect”. Besides, the inhibition result (in the data set on MDA-MB-231 [11]; in [12]) was “Active” throughout.
`O=C(CCC(=O)N1CCN(CCCN2c3ccccc3Sc3ccccc32)CC1)OCCCCOc1no[n+]([O-])c1S(=O)(=O)c1ccccc1`: the pIC50 was 5.79 in the data set with SUM-159-PT [1]; 4.95 in the data set on MDA-MB-231 [2]; 5.53 with MCF7 [3]; 4.87 with SK-BR-3; 5.79 in the data set on KG-1a. In addition, the “Ratio IC50” value is given as 6 - 15 with SUM-159-PT [14] and 4 - 13 in the data set on MCF7 [15]. For the same molecule, the survival at 24 h, 250 µM in data set [4] stood at 64.5%. The molecule further came in with an inhibition at 0.18 µM in the data set on MCF7 [16] of 64.4%. Also, in the data set on MCF7 [17], the inhibition at 0.37 µM turned out to be 33.1%. This molecule also came in with an inhibition at 0.74 µM in the data set with MCF7 [18] of 11.6%. Further, the inhibition result (in the data set on MCF7 [6]; with SUM-159-PT [7]; in the data set on MDA-MB-231 [19]; in [20]) was “Dose-dependent effect” each time. The Activity in the data set with SUM-159-PT [8] is 19; in the data set on SUM-159-PT [9], 8; in the data set with SUM-159-PT [10], 1; in the data set on MDA-MB-231 [13], “Dose-dependent effect”.
On to `CN1CCN(CCCN2c3ccccc3Sc3ccc(C(F)(F)F)cc32)CC1` [TRIFLUOPERAZINE], for which the pIC50 with SUM-159-PT [1] is 4.77; in the data set on MDA-MB-231 [2], 4.67; in the data set with MCF7 [3], 4.95; with SK-BR-3 it was 4.80; in the data set on KG-1a, 5.34. In the data set with MCF7 [21], this molecule had an inhibition at 2.83 µM of 63.8%. In addition, the Activity in the data set with SUM-159-PT [10] is listed as 12. Further, the inhibition entry with MDA-MB-231 [22] was “Active”.
